These results are taken from patent US20080171716A1, “NUCLEIC ACID MODULATION OF TOLL-LIKE RECEPTOR-MEDIATED IMMUNE STIMULATION” (Protiva Biotherapeutics, Inc., priority 2006, published 2008).

For data set [1], the target named is T1, TLR7 (Mus musculus, UniProt P58681).
T1 sequence (P58681 27-1050): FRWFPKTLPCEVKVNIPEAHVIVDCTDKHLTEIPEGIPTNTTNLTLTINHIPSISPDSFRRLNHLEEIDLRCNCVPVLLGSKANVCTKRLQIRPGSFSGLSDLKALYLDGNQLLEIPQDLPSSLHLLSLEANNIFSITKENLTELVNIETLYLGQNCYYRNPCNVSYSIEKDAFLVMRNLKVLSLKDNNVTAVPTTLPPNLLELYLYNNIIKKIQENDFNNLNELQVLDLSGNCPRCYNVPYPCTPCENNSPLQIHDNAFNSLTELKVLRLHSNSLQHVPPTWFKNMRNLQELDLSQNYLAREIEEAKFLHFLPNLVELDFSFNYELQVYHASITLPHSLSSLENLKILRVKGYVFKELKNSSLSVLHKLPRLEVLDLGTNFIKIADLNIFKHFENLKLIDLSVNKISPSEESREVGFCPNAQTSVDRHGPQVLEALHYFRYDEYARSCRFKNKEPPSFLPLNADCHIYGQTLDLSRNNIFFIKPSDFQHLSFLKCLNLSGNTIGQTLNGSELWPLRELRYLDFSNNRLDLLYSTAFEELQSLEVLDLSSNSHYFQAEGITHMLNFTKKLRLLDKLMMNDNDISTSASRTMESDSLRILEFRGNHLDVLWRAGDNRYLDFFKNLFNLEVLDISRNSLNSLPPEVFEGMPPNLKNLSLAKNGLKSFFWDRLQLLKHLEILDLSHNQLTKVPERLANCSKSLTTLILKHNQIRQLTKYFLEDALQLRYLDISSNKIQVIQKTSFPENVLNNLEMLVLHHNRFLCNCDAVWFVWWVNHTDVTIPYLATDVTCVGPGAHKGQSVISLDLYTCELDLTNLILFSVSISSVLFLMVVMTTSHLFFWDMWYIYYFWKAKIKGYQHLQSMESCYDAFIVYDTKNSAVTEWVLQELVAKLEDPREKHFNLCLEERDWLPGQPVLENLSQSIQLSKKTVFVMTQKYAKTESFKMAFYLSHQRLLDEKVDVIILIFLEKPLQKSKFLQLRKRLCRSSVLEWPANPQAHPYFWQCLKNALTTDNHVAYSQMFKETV
The data set is described as follows: In vivo cytokine induction by formulated ssRNA in mice. Set-up: from tissue; host or cells: whole animal: female Balb/C mice, plasma cytokines; species or system Balb/C mice. To be noted: IV. Here is the method:
Cytokine ELISA. All cytokines were quantified using sandwich ELISA kits according to the manufacturer's instructions. These were mouse and human IFN-α (PBL Biomedical; Piscataway, N.J.) and IL-6 (eBioscience; San Diego, Calif.).
In Vivo Cytokine Induction. Animal studies were performed at Protiva Biotherapeutics in accordance with Canadian Council on Animal Care guidelines and following protocol approval by the local Animal Care and Use Committee. Female Balb/C mice were subjected to a two-week quarantine and acclimation period prior to use at six to eight-weeks of age. RNA formulations were administered by standard injection in the lateral tail vein in 0.2 ml PBS. Six hours after injection, blood was collected by cardiac puncture and processed as plasma for cytokine analysis. In experiments studying inhibition of cytokine induction by loxoribine, formulated RNA (100 μg) was administered IV 2 h prior to IV administration of 1 mg loxoribine in PBS. Blood was collected by cardiac puncture 2 h after administration of loxoribine and processed as plasma for cytokine analysis.

Data set [2] concerns the target T1, TLR7. The data set is described as follows: Loxoribine-induced IFN-α/IL-6 production in murine Flt3L-derived dendritic cells. The data set is classed as cell-based. Set-up: Femurs and tibiae of female Balb/C mice were isolated; endogenous in cells; host or cells: Flt3L-derived dendritic cells cultured from bone marrow of female Balb/C mice. The following applies: murine Flt3L DC; 30 μM Lox; 0.2 μM RNA; 24 h. The protocol: Lipid Encapsulation of RNA and ODN. RNA or ODN were encapsulated in liposomes by a process of spontaneous vesicle formation as described in Judge et al., supra, and Jeffs et al., Pharm. Res., 22:362-372 (2005).
Flt3L-derived dendritic cells (DC) were generated as described in Gilliet et al., J. Exp. Med., 195:953-958 (2002), using 100 ng/ml murine Flt3-ligand (Peprotech) supplemented media. Femurs and tibiae of female Balb/C mice were isolated and rinsed in sterile PBS. The ends of bones were cut and marrow harvested in complete media (RPMI 1640, 10% heat inactivated FBS, 1% penicillin/streptomycin, 2 mM L-glutamine, 1 mM sodium pyruvate, 25 mM HEPES, 50 μM 2-mercaptoethanol). Bone marrow cells were passed through a 70 μm strainer and centrifuged at 1000 rpm for 7 min. and resuspended in complete media supplemented with 100 ng/ml murine Flt3L to 2×10^6 cells/ml. 2 ml of cells were seeded in 6-well plates and 1 ml fresh media was added every two to three days. On day 9 of culture, non-adherent cells were washed in complete media and plated into 96-well plates at concentrations ranging from 0.5 to 2.5×10^5 cells/well. […]
Cytokine ELISA. All cytokines were quantified using sandwich ELISA kits according to the manufacturer's instructions. […]

[3] abbreviates: 1:1 molar ratio in lipid particles, 40 μg βgal AS RNA, plasma 6 h.
Setting [4] is: plasma 6 h after administration.

For “polyUmod21: 2′OMe-uridine homopolymer of 21 nucleotides in length (UUUUUUUUUUUUUUUUUUUUU; all 2'-O-methyl, backbone not given here)”, in data set [1] (setting [3]), the “IFN-α induction by ssRNA agonist when co-formulated” value is given as “eliminated measurable” and the “IL-6 induction by ssRNA agonist when co-formulated” value is “eliminated measurable”. Moreover, in data set [1] (setting [4]), the “plasma IFN-α after administration of the formulated RNA alone” value is “no measurable cytokine response” and the “plasma IL-6 after administration of the formulated RNA alone” value is “no measurable cytokine response”. In data set [2], the “inhibition of Lox-mediated IFN-α induction” value is 87+/−11% and the “inhibition of Lox-mediated IL-6 induction” value is on record as 69+/−1%.
